Active and inactive are the calls of the source.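 Rule for the calls: active = caspase luminescence falls with dose and the half-maximal concentration AC50 from the fitted curve is at or below a set limit; inconclusive = flat fit at 30 to 70% signal loss, or invalid fit; inactive = AC50 above the limit, or signal rises instead.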
These compounds were tested on INS-1E cytokine-induced caspase-3/7, Caspase-Glo luminescence, 48 h (assay: inhibitors of cytokine-induced caspase-3/7 activity, dose response, orthogonal assay for beta-cell apoptosis protection project, INS-1E rat cells, luminescence (AID 463206)).
For `O=C(NC(NC(=S)Nc1ccc(Cl)cc1Cl)C(Cl)(Cl)Cl)c1cccc([N+](=O)[O-])c1` (configuration not stated), the AC50 was > 26 µM (inactive). In the case of `CCOC(=O)c1cnc(-n2nc(C)cc2C)nc1NC(C)c1ccccc1` (configuration not stated), the AC50 was > 12 µM (inactive). `NC(=S)N/N=C/c1ccc(C23CC4CC(CC(C4)C2)C3)cc1` was tested, and the AC50 was > 26 µM (inactive). In the case of `O=C(NCc1cccnc1)/C(=C\c1ccc(-c2ccc(Br)cc2)o1)S(=O)(=O)c1ccccc1`, the AC50 was > 26 µM (inactive). `Oc1ccc(CCNc2ncnc3ccc(Cl)cc23)cc1` was tested, and the AC50 was > 26 µM (inactive). `C/C(=N\NC(=O)Cc1ccc(Cl)cc1)c1ccccn1` was tested, and the AC50 was > 26 µM (inactive). In the case of `Cc1sc2ncnc(N3CCN(S(=O)(=O)c4ccccc4)CC3)c2c1C`, the AC50 was > 26 µM (inactive). For `Cc1ccc2ccc3cccnc3c2n1`, the AC50 was > 26 µM (inactive). For `Cc1ccc(/C=C/C(=O)c2ccc([N+](=O)[O-])o2)cc1`, the AC50 was > 26 µM (inactive). For `Cc1onc(-c2c(Cl)cccc2Cl)c1C(=O)N/N=C(\N)COc1ccc(Cl)cc1`, the AC50 was > 26 µM (inactive). In the case of `C1CCC(C(CC2CCCCN2)C2CCCCC2)CC1` (configuration not stated), the AC50 was > 26 µM (inactive). In the case of `COc1ccc(-c2cn(-c3ccc(OC)cc3)c3[n+]2-c2ccccc2CC3)cc1`, the AC50 was > 26 µM (inactive). For `O=C(Nc1nc(NC(=O)c2ccco2)n(-c2ccccc2)n1)c1ccccc1`, the AC50 was > 26 µM (inactive). For `CN(C)C(=O)c1ccc(NC(=O)c2cccc(S(=O)(=O)N3CCCCCC3)c2)cc1`, the AC50 was > 26 µM (inactive). `CCCCCCCC(=O)Nc1ccc(C(=O)N/N=C/c2cccc([N+](=O)[O-])c2)cc1` was tested, and the AC50 was > 26 µM (inactive). In the case of `COc1ccccc1C(=O)Nc1nc(-c2ccc(S(=O)(=O)N3CCOCC3)cc2)cs1`, the AC50 was > 26 µM (inactive). Work on `O=[N+]([O-])c1ccc(/C=N/Nc2ccnc3cc(Cl)ccc23)o1` yielded an AC50 of 19.8 µM. `O=C1C=C(c2cccs2)C[C@H](c2ccccc2)[C@H]1n1nnc([N+](=O)[O-])n1` was tested, and the AC50 was > 26 µM (inactive). With `Cc1cc(N/N=C/c2ccc(F)cc2)nc(-n2nc(C)cc2C)n1` the AC50 was > 26 µM (inactive). For `Cc1nn(-c2nc3ccccc3[nH]2)c(=O)c2ccccc12`, the AC50 was > 26 µM (inactive). In the case of `CCC1CCCCN1S(=O)(=O)c1ccc(NC(=O)c2nc(S(C)(=O)=O)ncc2Cl)cc1` (configuration not stated), the AC50 was > 26 µM (inactive). With `CCC(CO)[n+]1c(C)cc(/C=C2\Sc3ccccc3N2Cc2ccccc2)cc1C` (configuration not stated) the AC50 was > 26 µM (inactive). In the case of `O=C(Nc1ccc2nc3n(c(=O)c2c1)CCCCC3)c1c(F)ccc([N+](=O)[O-])c1F`, the AC50 was > 26 µM (inactive). `CCOC(=O)c1ccc(NC(=O)c2cccnc2)cc1` was tested, and the AC50 was > 26 µM (inactive). In the case of `O=c1c(Cl)c2oc3ccccc3nc-2c2ccccc12`, the AC50 was > 26 µM (inactive). For `COCc1ccc(O)c2ncccc12`, the AC50 was > 26 µM (inactive). For `S=C(NCCCN1CCOCC1)N1CCN(c2nc(-c3ccc(Cl)cc3)cs2)CC1`, the AC50 was > 12 µM (inactive). In the case of `Cc1ccc(NC(=O)/C=C/c2ccc([N+](=O)[O-])s2)c(C)c1`, the AC50 was 1.17 µM. In the case of `O=C(Cc1ccc([N+](=O)[O-])cc1)Nc1cccnc1`, the AC50 was > 26 µM (inactive). Work on `Cc1sc2ncnc(NCC(O)c3ccccc3)c2c1C` (configuration not stated) yielded an AC50 of 23.5 µM. `O=C(Nc1nc(-c2ccccn2)cs1)c1ccc(Cl)s1` was tested, and the AC50 was > 26 µM (inactive). In the case of `C#CCOCCOCCOCCNc1nc(N2CCN(C(=O)CCCCCCCCCCNC(=O)[C@H](CCCCN)n3cc(C)nn3)CC2)nc(N2CCN(C(=O)CCCCCCCCCCNC(=O)[C@H](CCCN=C(N)N)n3cc(C[C@@H](C)CC)nn3)CC2)n1`, the AC50 was > 26 µM (inactive). `CCc1ccc(-c2cc(C(F)(F)F)n3nc(C(=O)Nc4cnn(Cc5ccc(C)cc5)c4)cc3n2)s1` was tested, and the AC50 was > 26 µM (inactive). With `CCOC(=O)c1ccc(NC(=O)NCc2cccnc2)cc1` the AC50 was > 26 µM (inactive). With `CCc1cc(C(=O)NC2CCCc3c2cnn3-c2cccc(C)c2C)n(C)n1` (configuration not stated) the AC50 was > 26 µM (inactive). With `O=C1c2ccccc2C2=Nc3ccccc3SC(c3ccc(Cl)cc3)C12` (configuration not stated) the AC50 was > 26 µM (inactive). With `Cc1cc(C(=O)NC2CCCc3c2cnn3-c2cccc(C)c2C)n(C)n1` (configuration not stated) the AC50 was > 26 µM (inactive). For `O=S(=O)(c1cc(F)ccc1F)N1CCN(c2ncnc3ccccc23)CC1`, the AC50 was > 26 µM (inactive). With `Oc1c(N=Nc2ccccn2)ccc2ccccc12` the AC50 was > 26 µM (inactive). `N#CC(c1ccc(Cl)cc1)c1ccc2c(C(F)(F)F)cc(C(F)(F)F)nc2n1` (configuration not stated) was tested, and the AC50 was > 26 µM (inactive). In the case of `COc1ccc(C(CCN2CCCCC2)c2c(OC)cc(OC)c3c(-c4ccccc4)cc(=O)oc23)cc1` (configuration not stated), the AC50 was 16.6 µM. With `C=CCn1c(=NC(=O)c2cc(-c3cccs3)nc3ccccc23)sc2cc(S(N)(=O)=O)ccc21` the AC50 was > 26 µM (inactive). For `O=C(c1ccc(F)c(S(=O)(=O)N2CCOCC2)c1)N1CCN(c2ccc(F)cc2)CC1`, the AC50 was > 26 µM (inactive). `COc1ccc(Nc2nc(N3CCCCC3)c3ccccc3n2)cc1` was tested, and the AC50 was 21.1 µM. For `CCN1/C(=C/c2ccc3cc(C)ccc3[n+]2CC)Sc2ccc3sccc3c21`, the AC50 was > 26 µM (inactive). For `CC1(C)CC(=O)C2=C(C1)OC1=C(C(=O)CC(C)(C)C1)C2c1ccc(O)cc1O`, the AC50 was > 26 µM (inactive). For `Cc1ccccc1OCC(O)CNC1CCC(NCC(O)COc2ccccc2C)CC1` (configuration not stated), the AC50 was > 26 µM (inactive). With `CCN(CC)c1ccc(N=Cc2ccccc2[N+](=O)[O-])cc1` the AC50 was > 26 µM (inactive). In the case of `COc1ccccc1NCC(=O)N/N=C/c1c(O)ccc2ccccc12`, the AC50 was > 26 µM (inactive). In the case of `COc1ccc(N/N=C(/N=Nc2nc(C)cc(=O)[nH]2)c2ccccc2)cc1`, the AC50 was > 26 µM (inactive). `Nc1nonc1-n1nnc(C(=O)N/N=C/c2cc(Br)ccc2O)c1CSC1=NCCS1` was tested, and the AC50 was > 26 µM (inactive). In the case of `COc1ccc(OC)c2[nH]c(C(=O)N/N=C/c3ccccc3O)cc12`, the AC50 was > 26 µM (inactive). In the case of `CC(C)CNC(=O)COC(=O)c1c2c(nc3ccccc13)/C(=C/c1cccs1)CC2`, the AC50 was > 26 µM (inactive). `Cn1c(NN=O)nc2ccccc21` was tested, and the AC50 was > 26 µM (inactive). In the case of `O=C(NCc1cccnc1)/C(=C/c1ccc(-c2cccc(Cl)c2)o1)S(=O)(=O)c1ccccc1`, the AC50 was > 26 µM (inactive). `CC(Oc1ccc(Cl)cc1Cl)c1nc(-c2ccc(NC(=O)c3cccnc3)cc2)no1` (configuration not stated) was tested, and the AC50 was > 26 µM (inactive). For `O=C(c1cccnc1)N(c1cc2sc(=O)oc2c2ccccc12)S(=O)(=O)c1ccccc1`, the AC50 was > 26 µM (inactive). For `Oc1ccc(CNc2ccccc2)c2cccnc12`, the AC50 was > 26 µM (inactive). For `Cc1cc(/C=N/n2c(COc3ccccc3C)nc3ccccc3c2=O)c(O)c([N+](=O)[O-])c1`, the AC50 was > 26 µM (inactive). `CCN(CC)C(=O)c1ccc(S(=O)(=O)N2CCC(c3nc4ccccc4s3)CC2)cc1` was tested, and the AC50 was > 26 µM (inactive). With `Cn1c(=O)[nH]c(=O)c2c1nc(N1CCN(C(c3ccccc3)c3ccccc3)CC1)n2CCO` the AC50 was > 26 µM (inactive). With `C/C(=N\NC(=O)c1ccc(F)cc1)c1ccccn1` the AC50 was > 26 µM (inactive). For `CCOc1cc(-c2sc(Nc3cc(C)ccc3OC)n[n+]2-c2ccccc2)ccc1OC`, the AC50 was > 26 µM (inactive). For `CN(C)c1cc[n+](CC(=O)Nc2ccc(Oc3ccccc3)cc2)cc1`, the AC50 was > 26 µM (inactive). In the case of `Cc1cccc(N=Nc2ccc(O)c3ncccc23)c1`, the AC50 was > 26 µM (inactive). With `C=C1C(O)[C@@H]2O[C@]3(CC[C@H](/C=C/C(C)[C@@H]4CC(C)=CC5(O[C@H](C[C@@](C)(O)C(=O)O)CCC5O)O4)O3)CC[C@H]2O[C@@H]1C(O)CC(C)[C@H]1OC2(CCCCO2)CCC1C` (some centres not stated) the AC50 was > 26 µM (inactive). For `COc1cccc(COc2cc3ccccc3nc2C)c1`, the AC50 was > 26 µM (inactive).

From PubChem BioAssay AID463206 (Broad Institute, 2010)
